Measurements as given in the supplement of paper PMC10307832.

compound: C1CC(C2=C(C1)C3=C(N2)C=CC(=C3)Cl)C(=O)N [Selisistat] + C[C@@H](Oc1cc(-c2cnn(C3CCNCC3)c2)cnc1N)c1c(Cl)ccc(F)c1Cl [Crizotinib] (partner 1 µM); experiment: relative viability (nuclei count vs DMSO), 5 days (fraction); higher = more cells survive; details: first compound 0.4 µM
How it was run: (§1)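 Relative viability equals treated-well nuclei counts divided by vehicle-well nuclei counts. Counts came from 4× images of lung cancer cell lines grown in 1536-well plates for 5 days after pin-tool dosing on the day after seeding. Dosing used one drug alone or a fixed anchor-drug dose plus five library-drug doses (not always all listed) in √10 steps, and values are medians of duplicate plates.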

| Cell Line | relative viability |
| --- | --- |
| HARA | 0.95 |
| HCC-78 | 0.341 |
| NCI-H322M | 0.959 |
| LCLC-97TM1 | 0.327 |
| NCI-H2009 | 1.09 |
| A-427 | 0.874 |
| NCI-H661 | 0.967 |
| NCI-H1734 | 0.696 |
| NCI-H460 | 1.02 |
| NCI-H2347 | 0.814 |
| SK-LU-1 | 1.02 |
| 201T | 1.04 |
| NCI-H1915 | 0.917 |
| HCC-827 | 0.954 |
| LXF-289 | 0.853 |
| NCI-H23 | 0.515 |
| NCI-H647 | 1.16 |

| Cell Line | relative viability |
| --- | --- |
| CAL-12T | 0.668 |
| NCI-H1651 | 0.866 |
| EPLC-272H | 0.941 |
| NCI-H2228 | 0.529 |
| NCI-H1792 | 1.01 |
| NCI-H1355 | 1.01 |
| NCI-H3122 | 0.315 |
| NCI-H1437 | 0.855 |
| NCI-H1755 | 0.917 |
| NCI-H2023 | 0.69 |
| HCC-15 | 0.913 |
| PC-14 | 0.834 |
| EKVX | 0.964 |
| LC-2-ad | 0.468 |
| NCI-H1563 | 0.804 |
| NCI-H1944 | 1.13 |

same assay, conditions: first compound 1.265 µM

| Cell Line | relative viability |
| --- | --- |
| BEN | 0.76 |
| HARA | 1.01 |
| HCC-78 | 0.304 |
| NCI-H322M | 1.01 |
| LCLC-97TM1 | 0.308 |
| NCI-H2009 | 1.02 |
| A-427 | 0.819 |
| NCI-H661 | 0.952 |
| NCI-H1734 | 0.606 |
| NCI-H460 | 0.658 |
| NCI-H2347 | 0.946 |
| SK-LU-1 | 0.987 |
| 201T | 1.03 |
| NCI-H1915 | 0.87 |
| HCC-827 | 0.873 |
| LXF-289 | 0.803 |
| NCI-H23 | 0.474 |

| Cell Line | relative viability |
| --- | --- |
| NCI-H647 | 1 |
| CAL-12T | 0.518 |
| NCI-H1651 | 0.893 |
| EPLC-272H | 0.865 |
| NCI-H2228 | 0.49 |
| NCI-H1792 | 1.02 |
| NCI-H1355 | 1.08 |
| NCI-H3122 | 0.235 |
| NCI-H1437 | 0.885 |
| NCI-H1755 | 0.927 |
| NCI-H2023 | 0.651 |
| HCC-15 | 0.866 |
| PC-14 | 0.877 |
| EKVX | 0.925 |
| NCI-H1563 | 0.737 |
| NCI-H1944 | 1.01 |

same assay, conditions: first compound 4 µM

| Cell Line | relative viability |
| --- | --- |
| BEN | 0.748 |
| HARA | 1 |
| HCC-78 | 0.3 |
| LCLC-97TM1 | 0.637 |
| NCI-H2009 | 1 |
| A-427 | 0.841 |
| NCI-H661 | 1.17 |
| NCI-H1734 | 0.714 |
| NCI-H2347 | 0.566 |
| SK-LU-1 | 1.1 |
| 201T | 0.986 |
| NCI-H1915 | 0.883 |
| HCC-827 | 0.946 |
| LXF-289 | 0.786 |
| CAL-12T | 0.795 |
| NCI-H1651 | 0.907 |
| NCI-H2228 | 0.362 |
| NCI-H3122 | 0.218 |
| NCI-H1437 | 0.977 |
| NCI-H1755 | 0.952 |
| NCI-H2023 | 0.636 |
| PC-14 | 0.991 |
| EKVX | 1.01 |
| LC-2-ad | 0.42 |
| NCI-H1563 | 0.835 |

same assay, conditions: first compound 12.65 µM

| Cell Line | relative viability |
| --- | --- |
| BEN | 0.72 |
| HARA | 1 |
| HCC-78 | 0.307 |
| NCI-H322M | 0.903 |
| LCLC-97TM1 | 0.393 |
| NCI-H2009 | 0.989 |
| A-427 | 0.917 |
| NCI-H661 | 1.04 |
| NCI-H1734 | 0.761 |
| NCI-H460 | 0.881 |
| NCI-H2347 | 0.813 |
| SK-LU-1 | 1.01 |
| 201T | 1.02 |
| NCI-H1915 | 0.885 |
| HCC-827 | 0.838 |
| LXF-289 | 0.709 |
| NCI-H23 | 0.468 |

| Cell Line | relative viability |
| --- | --- |
| NCI-H647 | 1.01 |
| CAL-12T | 0.626 |
| NCI-H1651 | 0.802 |
| EPLC-272H | 0.915 |
| NCI-H2228 | 0.442 |
| NCI-H1792 | 0.907 |
| NCI-H1355 | 1.08 |
| NCI-H3122 | 0.296 |
| NCI-H1437 | 0.865 |
| NCI-H1755 | 0.82 |
| NCI-H2023 | 0.68 |
| HCC-15 | 0.782 |
| PC-14 | 0.919 |
| EKVX | 0.896 |
| LC-2-ad | 0.433 |
| NCI-H1563 | 0.803 |
| NCI-H1944 | 1.09 |

same assay, conditions: first compound 40 µM

| Cell Line | relative viability |
| --- | --- |
| BEN | 0.863 |
| HARA | 0.981 |
| HCC-78 | 0.345 |
| NCI-H322M | 1.15 |
| LCLC-97TM1 | 0.498 |
| NCI-H2009 | 0.906 |
| A-427 | 0.921 |
| NCI-H661 | 0.996 |
| NCI-H1734 | 0.648 |
| NCI-H460 | 0.987 |
| NCI-H2347 | 0.84 |
| SK-LU-1 | 1.09 |
| 201T | 1.01 |
| NCI-H1915 | 0.908 |
| HCC-827 | 0.883 |
| LXF-289 | 0.805 |
| NCI-H23 | 0.473 |

| Cell Line | relative viability |
| --- | --- |
| NCI-H647 | 0.948 |
| CAL-12T | 0.422 |
| NCI-H1651 | 0.855 |
| EPLC-272H | 0.992 |
| NCI-H2228 | 0.379 |
| NCI-H1792 | 0.965 |
| NCI-H1355 | 1.21 |
| NCI-H3122 | 0.266 |
| NCI-H1437 | 0.792 |
| NCI-H1755 | 0.946 |
| NCI-H2023 | 0.576 |
| HCC-15 | 0.813 |
| PC-14 | 0.936 |
| EKVX | 0.983 |
| LC-2-ad | 0.433 |
| NCI-H1563 | 0.776 |
| NCI-H1944 | 1.04 |

compound: C1CC(C2=C(C1)C3=C(N2)C=CC(=C3)Cl)C(=O)N [Selisistat] + C[C@]1(O)C[C@@H](c2nc(-c3ccc4ccc(-c5ccccc5)nc4c3)c3c(N)nccn32)C1 [Linsitinib] (partner 1 µM); experiment: as above; details: first compound 0.4 µM
How it was run: as §1

| Cell Line | relative viability |
| --- | --- |
| BEN | 0.971 |
| HARA | 0.938 |
